Experimental data published in US12661410B2, “Compounds for targeted degradation of RET” (C4 Therapeutics, Inc., priority 2020, dated 2026).
Numbering of substitutions follows the chain as printed. Where two headings read alike, the source gives them in different places.

Columns and labels:
RET(KD: 658-1114 G810R) = molecular target: T1, RET(KD: 658-1114 G810R) (Homo sapiens, UniProt P07949, G810R); assay: HiBiT-Degradation, RET G810R degradation assay (Nano-Glo HiBiT Lytic), 293T.165 cells; format: cell-based; conditions: for Emax / DC50: 6.0 hours
T1 construct: 658-1114; expressed in transfected cells; host or cells: 293T.165 (293T cells, generated in-house)
T1 sequence (P07949 658-1114 G810R): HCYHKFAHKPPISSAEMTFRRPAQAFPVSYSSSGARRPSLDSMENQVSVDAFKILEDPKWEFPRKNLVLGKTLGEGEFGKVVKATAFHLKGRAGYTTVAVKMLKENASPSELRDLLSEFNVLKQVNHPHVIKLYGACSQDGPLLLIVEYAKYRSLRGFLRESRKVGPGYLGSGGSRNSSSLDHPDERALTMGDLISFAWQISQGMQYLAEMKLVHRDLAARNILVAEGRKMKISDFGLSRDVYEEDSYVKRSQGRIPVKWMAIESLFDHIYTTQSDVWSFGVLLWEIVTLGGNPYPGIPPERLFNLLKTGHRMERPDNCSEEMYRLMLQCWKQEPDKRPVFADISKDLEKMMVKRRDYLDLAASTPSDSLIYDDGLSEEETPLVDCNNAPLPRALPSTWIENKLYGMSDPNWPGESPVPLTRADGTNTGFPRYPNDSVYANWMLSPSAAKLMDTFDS
Summary of the method: (§1)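 HEK293T lines expressing HiBiT-tagged RET kinase domain, wild-type (293T.144) or G810R (293T.165), treated 6 h in duplicate, 11-point half-log series from 10 μM top. Lytic HiBiT luminescence read; DC50 and Emax (% protein remaining) from dose-response curves.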

RET (658-1114) = molecular target: T2, RET (658-1114) (Homo sapiens, UniProt P07949); assay: HiBiT-Degradation, RET wild-type degradation assay (Nano-Glo HiBiT Lytic), 293T.144 cells; format: cell-based; conditions: for Emax / DC50: 6.0 hours
T2 construct: 658-1114; expressed in transfected cells; host or cells: 293T.144 (293T cells, generated in-house)
T2 sequence (P07949 658-1114): T1 sequence (P07949 658-1114 G810R) with R153G
Summary of the method: as §1

[1] = % remaining protein, read-out: 293T.165 RET(KD: 658-1114 G810R) 6.0 hours (Emax)
[2] = half-maximal degradation concentration, read-out: 293T.165 RET(KD: 658-1114 G810R) 6.0 hours (DC50)
[3] = % remaining protein, read-out: 293T.144 RET (658-1114) 6.0 hours (Emax)
[4] = half-maximal degradation concentration, read-out: 293T.144 RET (658-1114) 6.0 hours (DC50)
[5] = HiBiT-Degradation, read-out: 293T.165 RET(KD: 658-1114 G810R) 6.0 hours (DC50)
[6] = HiBiT-Degradation, read-out: 293T.144 RET (658-1114) 6.0 hours (DC50)
[7] = HiBiT-Degradation, read-out: 293T.144 RET (658-1114) 6.0 hours (Emax)

Row | SMILES | Emax (RET(KD: 658-1114 G810R); [1]) [%] | DC50 (RET(KD: 658-1114 G810R); [2]) [nM] | 293T.165 RET(KD: 658-1114 G810R) 6.0 hours (Emax) (RET(KD: 658-1114 G810R); HiBiT-Degradation) | 293T.165 RET(KD: 658-1114 G810R) 6.0 hours (IP) [nM] (RET(KD: 658-1114 G810R); HiBiT-Degradation) | DC50 (RET(KD: 658-1114 G810R); [5]) [nM] | 293T.144 RET (658-1114) 6.0 hours (IP) [nM] (RET (658-1114); HiBiT-Degradation) | DC50 (RET (658-1114); [6]) [nM] | Emax (RET (658-1114); [7]) [%] | 293T.165 RET(KD: 658-1114 G810R) 6.0 hours (IP) [nM] (RET(KD: 658-1114 G810R)) | 293T.144 RET (658-1114) 6.0 hours (IP) [nM] (RET (658-1114)) | Emax (RET (658-1114); [3]) [%] | DC50 (RET (658-1114); [4]) [nM] | HiBiT-Degradation 293T.165 RET(KD: 658-1114 G810R) 6.0 hours (IP) [nM] (RET(KD: 658-1114 G810R); RET G810R) | DC50 (RET(KD: 658-1114 G810R); RET G810R, read-out: HiBiT-Degradation 293T.165 RET(KD: 658-1114 G810R) 6.0 hours (DC50)) [nM] | Emax (RET(KD: 658-1114 G810R); RET G810R, read-out: HiBiT-Degradation 293T.165 RET(KD: 658-1114 G810R) 6.0 hours (Emax)) [%] | HiBiT-Degradation 293T.144 RET (658-1114) 6.0 hours (IP) [nM] (RET (658-1114); RET wild-type) | DC50 (RET (658-1114); RET wild-type, read-out: HiBiT-Degradation 293T.144 RET (658-1114) 6.0 hours (DC50)) [nM] | Emax (RET (658-1114); RET wild-type, read-out: HiBiT-Degradation 293T.144 RET (658-1114) 6.0 hours (Emax)) [%]
1 | COc1ccc(CN2C3CC2CN(c2ccc(-c4nc(-c5cnn([C@H]6CC[C@@H](N7CCC(c8cc9c(cc8F)c(N8CCC(=O)NC8=O)nn9C)C(F)(F)C7)CC6)c5)cn5ncc(C#N)c45)cn2)C3)cn1 (relative stereo) [Compound 200, 6-(1-((1s, 4s)-4-(4-(3-(2,4-Dioxotetrahydropyrimidin-1(2H)-yl)-5-fluoro-1-methyl-1H-indazol-6-yl)-3,3-difluoropiperidin-1-yl)cyclohexyl)-1H-pyrazol-4-yl)-4-(6-(6-((6-methoxypyridin-3-yl)methyl)-3,6-diazabicyclo[3.1.1]heptan-3-yl)pyridin-3-yl)pyrazolo[1,5-a]pyrazine-3-carbonitrile] | < 50 | < 50 |  |  |  |  |  |  | ++++ (<50 nM = ++++) | ++++ (<50 nM = ++++) | < 30 | < 50 |  |  |  |  |  | 
2 | N#Cc1cnn2cc(-c3cnn(C4CCN(C(=O)CN5CCC(c6ccc(NC7CCC(=O)NC7=O)cc6F)CC5)CC4)c3)cc(-c3ccc(N4CC5CC(C4)N5Cc4ccccn4)nc3)c12 (stereo not drawn) [Compound 73, 6-[1-[1-[2-[4-[4-[(2,6-dioxo-3-piperidyl)amino]-2-fluoro-phenyl]-1-piperidyl]acetyl]-4-piperidyl]pyrazol-4-yl]-4-[6-[6-(2-pyridylmethyl)-3,6-diazabicyclo[3.1.1]heptan-3-yl]-3-pyridyl]pyrazolo[1,5-a]pyridine-3-carbonitrile] | < 30 | < 50 |  |  |  |  |  |  |  |  |  |  | ++++ (< 50 nM = ++++) | < 50 | < 30 | ++++ (< 50 nM = ++++) | < 50 | < 30

More lines, main results first:

Row | Emax (RET(KD: 658-1114 G810R); [1]) [%] | DC50 (RET(KD: 658-1114 G810R); [2]) [nM] | 293T.165 RET(KD: 658-1114 G810R) 6.0 hours (Emax) (RET(KD: 658-1114 G810R); HiBiT-Degradation) | 293T.165 RET(KD: 658-1114 G810R) 6.0 hours (IP) [nM] (RET(KD: 658-1114 G810R); HiBiT-Degradation) | DC50 (RET(KD: 658-1114 G810R); [5]) [nM] | 293T.144 RET (658-1114) 6.0 hours (IP) [nM] (RET (658-1114); HiBiT-Degradation) | DC50 (RET (658-1114); [6]) [nM] | Emax (RET (658-1114); [7]) [%] | SMILES | 293T.165 RET(KD: 658-1114 G810R) 6.0 hours (IP) [nM] (RET(KD: 658-1114 G810R)) | 293T.144 RET (658-1114) 6.0 hours (IP) [nM] (RET (658-1114)) | Emax (RET (658-1114); [3]) [%] | DC50 (RET (658-1114); [4]) [nM] | HiBiT-Degradation 293T.165 RET(KD: 658-1114 G810R) 6.0 hours (IP) [nM] (RET(KD: 658-1114 G810R); RET G810R) | DC50 (RET(KD: 658-1114 G810R); RET G810R, read-out: HiBiT-Degradation 293T.165 RET(KD: 658-1114 G810R) 6.0 hours (DC50)) [nM] | Emax (RET(KD: 658-1114 G810R); RET G810R, read-out: HiBiT-Degradation 293T.165 RET(KD: 658-1114 G810R) 6.0 hours (Emax)) [%] | HiBiT-Degradation 293T.144 RET (658-1114) 6.0 hours (IP) [nM] (RET (658-1114); RET wild-type) | DC50 (RET (658-1114); RET wild-type, read-out: HiBiT-Degradation 293T.144 RET (658-1114) 6.0 hours (DC50)) [nM] | Emax (RET (658-1114); RET wild-type, read-out: HiBiT-Degradation 293T.144 RET (658-1114) 6.0 hours (Emax)) [%]
3 | < 50 | < 100 | +++ (<50% = +++) | +++ (<100 nM = +++) | < 100 | ++++ (< 50 nM = ++++) | < 50 | < 30 | Cn1nc(N2CCC(=O)NC2=O)c2ccc(C3CCN(CC(=O)N4CCN(c5ccc(-c6cc(-c7ccc(N8CCN(Cc9ccccn9)CC8)nc7)c7c(C#N)cnn7c6)cc5)CC4)CC3)cc21 [Compound 65, 6-[4-[4-[2-[4-[3-(2,4-dioxohexahydropyrimidin-1-yl)-1-methyl-indazol-6-yl]-1-piperidyl]acetyl]piperazin-1-yl]phenyl]-4-[6-[4-(2-pyridylmethyl)piperazin-1-yl]-3-pyridyl]pyrazolo[1,5-a]pyridine-3-carbonitrile] |  |  |  |  |  |  |  |  |  | 
4 | < 50 | < 100 | +++ (<50% = +++) | ++++ (< 50 nM = ++++) | < 100 | ++++ (< 50 nM = ++++) | < 50 | < 30 | N#Cc1cnn2cc(-c3cnn(C4CCN(CCN5CCC(c6ccc(NC7CCC(=O)NC7=O)cc6F)CC5)CC4)c3)cc(-c3ccc(N4CCN(Cc5ccccn5)CC4)nc3)c12 (stereo not drawn) [Compound 12, 6-(1-(1-(2-(4-(4-((2,6-Dioxopiperidin-3-yl)amino)-2-fluorophenyl)piperidin-1-yl)ethyl)piperidin-4-yl)-1H-pyrazol-4-yl)-4-(6-(4-(pyridin-2-ylmethyl)piperazin-1-yl)pyridin-3-yl)pyrazolo[1,5-a]pyridine-3-carbonitrile] |  |  |  |  |  |  |  |  |  | 
5 | < 30 | < 50 |  |  |  |  |  |  | CCC1(C(=O)NC2CCC2)CCN(c2ccc(-c3nc(-c4cnn([C@H]5CC[C@H](N6CCC(c7ccc8c(c7)CCN8[C@@H]7CCC(=O)NC7=O)CC6)CC5)c4)cn4ncc(C#N)c34)cn2)CC1 (single isomer, unassigned) [Compound 129] | ++++ (<50 nM = ++++) | ++++ (<50 nM = ++++) | < 30 | < 50 |  |  |  |  |  | 
